Read-outs that look alike come from different tables or passages of the source.
Columns and labels:
[1] = test system: P. falciparum male gametocytes; assay: P. falciparum Dual Gamete Formation Assay (PfDGFA), male readout (exflagellation); assay type: cell-based, Plasmodium falciparum NF54; details: for HitlevelM: number of replicates with >50% inhibition in the male readout; for IC50: PfDGFA, 24 h incubation with gametocytes before induction, exflagellation readout, read-out: Male IC50; for Selectivity Ratio M: HepG2 Tox50 versus male IC50
Procedure, shortened: (§1)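 Day-14 NF54 gametocytes were incubated with compound for 24 h at 37°C under 1% O2/3% CO2/96% N2. Gametogenesis was triggered with ookinete medium (0.1 μM xanthurenic acid) plus Cy3-anti-Pfs25, and exflagellation was imaged by brightfield after cooling to 4°C then 28°C. Females were imaged by Pfs25 fluorescence 24 h later at 28°C.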

HepG2 cells = assay: HepG2 cytotoxicity counter-screen
[2] = test system: P. falciparum female gametocytes; assay: P. falciparum Dual Gamete Formation Assay (PfDGFA), female readout (Pfs25-positive female gametes); assay type: cell-based, Plasmodium falciparum NF54; details: for HitlevelF: number of replicates with >50% inhibition in the female readout; for IC50: PfDGFA, 24 h incubation with gametocytes before induction, female gamete readout, read-out: Female IC50; for Selectivity ratio F: HepG2 Tox50 versus female IC50
Procedure, shortened: as §1

[3] = cytotoxic activity against HepG2 cells
[4] = 2µM, 24h preincubation with gametocytes, average of replicates
[5] = 2µM, 24h preincubation with gametocytes, replicate R1
[6] = 2µM, 24h preincubation with gametocytes, replicate R4
[7] = PfDGFA at 2µM, 24h preincubation with gametocytes, average of replicates
[8] = PfDGFA at 2µM, 24h preincubation with gametocytes, replicate R1
[9] = PfDGFA at 2µM, 24h preincubation with gametocytes, replicate R3
[10] = PfDGFA at 2µM, 24h preincubation with gametocytes, replicate R4
[11] = 2µM, 24h preincubation with gametocytes prior to induction of gametogenesis, average of replicates
[12] = 2µM, 24h preincubation with gametocytes prior to induction of gametogenesis, replicate R1
[13] = 2µM, 24h preincubation with gametocytes prior to induction of gametogenesis, replicate R3
[14] = 2µM, 24h preincubation with gametocytes prior to induction of gametogenesis, replicate R4

| Compound | HitlevelM ([1]; 2µM, 24h preincubation) | Tox50 (HepG2 cells; [3]) [µM] | HitlevelF ([2]; 2µM, 24h preincubation) | Selectivity Ratio M [1] | IC50 [1] [µM] | Selectivity ratio F [2] | IC50 [2] [µM] | Average inhibition male (%) [1, 7] [%] | % inhibition male (individual replicates) R1 [1, 8] [%] | % inhibition male (individual replicates) R3 [1, 9] [%] | % inhibition male (individual replicates) R4 [1, 10] [%] | HitlevelM ([1]; 2µM) | Average inhibition female (%) [2, 7] [%] | % inhibition female (individual replicates) R1 [2, 8] [%] | % inhibition female (individual replicates) R3 [2, 9] [%] | % inhibition female (individual replicates) R4 [2, 10] [%] | HitlevelF ([2]; 2µM) | other results |
| --- | --- | --- | --- | --- | --- | --- | --- | --- | --- | --- | --- | --- | --- | --- | --- | --- | --- | --- |
| CCC1CN2CCc3cc(OC)c(OC)cc3C2CC1CC1NCCc2cc(OC)c(OC)cc21.Cl (centres unmarked) [TCMDC-125849] | 2 | 27.47 | 4 | – | – | – | – | – | – | – | – | – | – | – | – | – | – | inhibition at 2 µM ([1]; Plasmodium falciparum, 2µM, 24h preincubation with gametocytes prior to induction of gametogenesis, average of replicates, read-out: Average inhibition male (%)): 47.7%; inhibition at 2 µM ([1]; Plasmodium falciparum, 2µM, 24h preincubation with gametocytes prior to induction of gametogenesis, replicate R1, read-out: % inhibition male (individual replicates) R1): 38.6%; inhibition at 2 µM ([1]; Plasmodium falciparum, 2µM, 24h preincubation with gametocytes prior to induction of gametogenesis, replicate R2, read-out: % inhibition male (individual replicates) R2): 27.6%; inhibition at 2 µM ([1]; Plasmodium falciparum, 2µM, 24h preincubation with gametocytes prior to induction of gametogenesis, replicate R3, read-out: % inhibition male (individual replicates) R3): 59.3%; inhibition at 2 µM ([1]; Plasmodium falciparum, 2µM, 24h preincubation with gametocytes prior to induction of gametogenesis, replicate R4, read-out: % inhibition male (individual replicates) R4): 65.1%; IC50 ([1]; Plasmodium falciparum): 3.53 µM; times more potent against females than males ([2]; PfDGFA female versus male gametocytes): 4.7; inhibition at 2 µM ([2]; Plasmodium falciparum, 2µM, 24h preincubation with gametocytes prior to induction of gametogenesis, average of replicates, read-out: Average inhibition female (%)): 93.3%; inhibition at 2 µM ([2]; Plasmodium falciparum, 2µM, 24h preincubation with gametocytes prior to induction of gametogenesis, replicate R1, read-out: % inhibition female (individual replicates) R1): 91%; inhibition at 2 µM ([2]; Plasmodium falciparum, 2µM, 24h preincubation with gametocytes prior to induction of gametogenesis, replicate R2, read-out: % inhibition female (individual replicates) R2): 79%; inhibition at 2 µM ([2]; Plasmodium falciparum, 2µM, 24h preincubation with gametocytes prior to induction of gametogenesis, replicate R3, read-out: % inhibition female (individual replicates) R3): 103%; inhibition at 2 µM ([2]; Plasmodium falciparum, 2µM, 24h preincubation with gametocytes prior to induction of gametogenesis, replicate R4, read-out: % inhibition female (individual replicates) R4): 100%; IC50 ([2]; Plasmodium falciparum): 0.75 µM |
| COc1ccc(CCNCCCCCCNCCc2ccc(Cl)c3ccccc23)cc1OC.Cl [TCMDC-131270] | – | 4.03 | – | 2.16 | 1.87 | 0.76 | 5.3 | – | – | – | – | – | – | – | – | – | – | Average inhibition male (%) [1, 4]: 92.0%; % inhibition male (individual replicates) R1 [1, 5]: 90.1%; % inhibition male (individual replicates) R4 [1, 6]: 89.1%; Average inhibition female (%) [2, 4]: 44.5%; % inhibition female (individual replicates) R1 [2, 5]: 48.1%; % inhibition female (individual replicates) R3 ([2]; 2µM, 24h preincubation with gametocytes, replicate R3): 32.3%; % inhibition female (individual replicates) R4 [2, 6]: 35.6% |
| COc1ccc(CCNCCCCCCNCCc2ccc(Cl)cc2)c(Cl)c1OC.Cl [TCMDC-131272] | – | 4.93 | – | 2.8 | 1.76 | 1.14 | 4.35 | 69.3 | 64.8 | 45.7 | 90.2 | 3 | 29.4 | 25.7 | -3.5 | 29.5 | 1 | – |
| C[C@H](Cc1ccc(Oc2ccc(C[C@@H](C)NC[C@H](O)c3cccc(Cl)c3)cc2)cc1)NC[C@H](O)c1cccc(Cl)c1.Cl [TCMDC-131560] | – | 3.07 | – | 2.05 | 1.5 | 1.25 | 2.46 | 76.2 | 79.7 | 57.0 | 91.6 | 4 | 43.2 | 35.8 | 26.6 | 73.1 | 1 | – |
| C[C@H](Cc1ccc(OCCCCCOc2ccc(C[C@@H](C)NC[C@H](O)c3cccc(Cl)c3)cc2)cc1)NC[C@H](O)c1cccc(Cl)c1.Cl [TCMDC-131563] | – | 3.24 | – | 2.4 | 1.35 | 1.3 | 2.49 | 65.6 | 66.8 | 65.3 | 85.7 | 3 | 27.5 | 37.3 | 14.2 | 41.5 | 0 | – |
| CC[C@H]1CN2CCc3cc(OC)c(OC)cc3[C@@H]2C[C@@H]1C[C@H]1NCCc2c1cc(OC)c(O)c2Cl [TCMDC-131802] | 2 | – | 4 | – | 1.91 | – | 0.64 | – | – | – | – | – | – | – | – | – | – | Average inhibition male (%) [1, 11]: 54.2%; % inhibition male (individual replicates) R1 [1, 12]: 49.4%; % inhibition male (individual replicates) R3 [1, 13]: 27.8%; % inhibition male (individual replicates) R4 [1, 14]: 72.9%; Tox50 (HepG2 cells): 1.67 µM; Average inhibition female (%) [2, 11]: 66.5%; % inhibition female (individual replicates) R1 [2, 12]: 51.1%; % inhibition female (individual replicates) R3 [2, 13]: 66.5%; % inhibition female (individual replicates) R4 [2, 14]: 85.4% |

From PMC10584170, “Machine learning-based phenotypic imaging to characterise the targetable biology of Plasmodium falciparum male gametocytes for the development of transmission-blocking antimalarials” (PLOS Pathogens, 2023)
